One may read the IC50 as the concentration needed to halve the response being measured. By Ki is commonly meant the equilibrium dissociation constant of an inhibitor or competing ligand from its target.

Series [1] concerns the target T1, Alpha-2A adrenergic receptor (Homo sapiens, UniProt P08913). Note: in other assays of this panel Not Active means under 50% inhibition at 10 µM.
T1 sequence (P08913 whole entry): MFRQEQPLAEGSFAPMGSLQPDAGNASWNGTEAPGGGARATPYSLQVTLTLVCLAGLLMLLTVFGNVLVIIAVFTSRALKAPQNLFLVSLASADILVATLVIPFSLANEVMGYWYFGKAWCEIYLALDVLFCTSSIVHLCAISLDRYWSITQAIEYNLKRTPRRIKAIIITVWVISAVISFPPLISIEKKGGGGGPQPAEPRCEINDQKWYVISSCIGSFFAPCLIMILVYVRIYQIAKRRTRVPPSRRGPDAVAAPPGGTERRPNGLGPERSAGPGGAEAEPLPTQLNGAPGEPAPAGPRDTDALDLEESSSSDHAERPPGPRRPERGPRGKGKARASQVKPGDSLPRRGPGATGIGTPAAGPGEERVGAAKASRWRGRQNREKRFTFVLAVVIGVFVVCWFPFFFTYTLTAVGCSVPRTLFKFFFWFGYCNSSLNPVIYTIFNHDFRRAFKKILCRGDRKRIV
In kind it is cell membranes, Sf9, Membrane. The conditions noted are these: sf9.

The target in series [2] is T2, Alpha-2C adrenergic receptor (Homo sapiens, UniProt P18825).
T2 sequence (P18825 whole entry): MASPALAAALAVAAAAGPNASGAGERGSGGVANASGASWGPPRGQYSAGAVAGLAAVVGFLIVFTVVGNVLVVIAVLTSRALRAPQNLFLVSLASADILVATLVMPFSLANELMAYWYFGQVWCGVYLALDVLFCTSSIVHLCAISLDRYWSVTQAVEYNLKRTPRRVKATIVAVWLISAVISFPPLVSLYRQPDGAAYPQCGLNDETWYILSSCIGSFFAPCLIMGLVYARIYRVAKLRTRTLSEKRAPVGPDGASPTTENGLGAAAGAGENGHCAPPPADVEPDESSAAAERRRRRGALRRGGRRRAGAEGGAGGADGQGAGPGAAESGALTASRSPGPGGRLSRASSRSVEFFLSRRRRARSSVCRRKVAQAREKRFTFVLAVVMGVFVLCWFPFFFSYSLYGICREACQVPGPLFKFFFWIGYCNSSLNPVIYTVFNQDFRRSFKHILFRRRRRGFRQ
The series is described as follows: DRUGMATRIX: Adrenergic Alpha-2C radioligand binding (ligand: [3H] MK-912). In kind it is cell membranes, Sf9, Membrane. The conditions noted are these: sf9.

Series [3] deals with Beta-1 adrenergic receptor (Homo sapiens, UniProt P08588). The series is described as follows: DRUGMATRIX: Adrenergic beta1 radioligand binding (ligand: [125I] Cyanopindolol). In kind it is cell membranes, CHO-K1, Membrane. Conditions: cho-k1; Not Active = under 50% inhibition at 10 µM.
Sequence of Beta-1 adrenergic receptor (P08588 whole entry): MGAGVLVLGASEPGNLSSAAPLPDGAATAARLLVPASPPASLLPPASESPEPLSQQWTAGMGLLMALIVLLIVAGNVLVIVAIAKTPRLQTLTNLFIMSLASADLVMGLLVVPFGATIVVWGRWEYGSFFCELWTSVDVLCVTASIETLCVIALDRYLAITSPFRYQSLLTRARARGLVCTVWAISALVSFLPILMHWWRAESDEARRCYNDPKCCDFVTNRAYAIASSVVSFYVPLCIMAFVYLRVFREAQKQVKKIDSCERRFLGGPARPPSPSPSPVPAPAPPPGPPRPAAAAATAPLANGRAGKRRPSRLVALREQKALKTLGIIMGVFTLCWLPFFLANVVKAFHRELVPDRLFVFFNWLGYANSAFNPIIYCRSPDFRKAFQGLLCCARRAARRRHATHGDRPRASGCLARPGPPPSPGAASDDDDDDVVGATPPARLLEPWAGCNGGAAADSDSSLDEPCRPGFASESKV
The target in series [4] is T3, Type-2 angiotensin II receptor (Homo sapiens, UniProt P50052). Note: in other assays of this panel Not Active means under 50% inhibition at 10 µM.
T3 sequence (P50052 whole entry): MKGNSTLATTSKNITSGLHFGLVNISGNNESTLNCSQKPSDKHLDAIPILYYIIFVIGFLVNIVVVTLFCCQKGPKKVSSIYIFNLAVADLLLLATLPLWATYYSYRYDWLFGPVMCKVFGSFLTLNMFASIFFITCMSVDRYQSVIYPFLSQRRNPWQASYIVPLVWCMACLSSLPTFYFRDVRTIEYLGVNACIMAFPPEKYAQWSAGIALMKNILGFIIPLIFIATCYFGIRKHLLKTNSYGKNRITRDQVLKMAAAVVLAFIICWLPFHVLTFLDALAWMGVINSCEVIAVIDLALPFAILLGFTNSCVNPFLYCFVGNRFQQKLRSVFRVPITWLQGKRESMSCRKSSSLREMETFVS
The format is cell-based. Conditions: cho-k1.

Series [5] can be described thus: DRUGMATRIX: Calcium Channel Type L, Phenylalkylamine radioligand binding (ligand: [3H] (-)-Desmethoxyverapamil (D-888)). Conditions: Not Active = under 50% inhibition at 10 µM. In kind it is cell membranes, Rattus norvegicus, Wistar, Brain, Membrane.
The nature of series [6]: DRUGMATRIX: GABAA, Flunitrazepam, Central radioligand binding (ligand: [3H] Flunitrazepam). The format is cell membranes, Rattus norvegicus, Wistar, Brain, Membrane. The conditions noted are these: Not Active = under 50% inhibition at 10 µM.
The target of a further series is Insulin receptor (Rattus norvegicus, UniProt P15127). The format is cell membranes, Wistar, Liver, Membrane. Note: in other assays of this panel Not Active means under 50% inhibition at 10 µM.
Sequence of Insulin receptor (P15127 27-759 limits assumed): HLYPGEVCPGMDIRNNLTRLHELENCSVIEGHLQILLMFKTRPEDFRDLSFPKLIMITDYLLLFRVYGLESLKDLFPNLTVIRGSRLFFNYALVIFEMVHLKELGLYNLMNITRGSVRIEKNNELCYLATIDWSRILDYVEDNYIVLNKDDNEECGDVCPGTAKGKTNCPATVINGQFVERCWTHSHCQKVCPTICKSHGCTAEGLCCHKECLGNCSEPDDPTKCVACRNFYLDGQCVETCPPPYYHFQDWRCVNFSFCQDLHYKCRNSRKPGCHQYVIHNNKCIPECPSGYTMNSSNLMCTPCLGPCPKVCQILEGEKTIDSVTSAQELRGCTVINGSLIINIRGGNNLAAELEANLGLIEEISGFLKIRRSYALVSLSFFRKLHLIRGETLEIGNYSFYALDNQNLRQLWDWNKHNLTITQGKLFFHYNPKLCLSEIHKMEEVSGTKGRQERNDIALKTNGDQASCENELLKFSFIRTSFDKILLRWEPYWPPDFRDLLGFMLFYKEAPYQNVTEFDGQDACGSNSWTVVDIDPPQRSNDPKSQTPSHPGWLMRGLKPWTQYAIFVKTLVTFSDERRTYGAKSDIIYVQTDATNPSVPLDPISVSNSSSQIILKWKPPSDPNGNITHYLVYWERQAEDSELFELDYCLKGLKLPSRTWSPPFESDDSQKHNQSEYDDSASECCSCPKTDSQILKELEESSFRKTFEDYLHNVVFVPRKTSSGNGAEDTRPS
Sequence of Insulin receptor (P15127 764-1383 limits assumed): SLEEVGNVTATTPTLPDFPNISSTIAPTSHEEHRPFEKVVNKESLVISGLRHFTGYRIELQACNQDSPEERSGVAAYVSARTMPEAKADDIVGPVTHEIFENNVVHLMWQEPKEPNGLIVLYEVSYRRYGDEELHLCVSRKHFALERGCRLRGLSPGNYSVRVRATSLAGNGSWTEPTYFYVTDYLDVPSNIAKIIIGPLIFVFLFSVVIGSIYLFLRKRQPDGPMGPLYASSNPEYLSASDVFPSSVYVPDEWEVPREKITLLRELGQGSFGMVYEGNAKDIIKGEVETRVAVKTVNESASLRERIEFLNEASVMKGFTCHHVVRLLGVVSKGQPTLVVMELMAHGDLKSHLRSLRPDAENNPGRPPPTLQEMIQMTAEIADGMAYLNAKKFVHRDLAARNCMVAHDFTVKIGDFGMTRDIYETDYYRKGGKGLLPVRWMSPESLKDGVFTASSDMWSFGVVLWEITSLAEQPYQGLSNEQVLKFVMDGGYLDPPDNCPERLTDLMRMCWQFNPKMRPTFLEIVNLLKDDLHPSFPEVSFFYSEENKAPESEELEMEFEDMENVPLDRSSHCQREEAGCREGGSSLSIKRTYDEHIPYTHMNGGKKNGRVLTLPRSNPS
The target of series [7] is T4, Neuropeptide Y receptor type 2 (Homo sapiens, UniProt P49146). Note: in other assays of this panel Not Active means under 50% inhibition at 10 µM.
T4 sequence (P49146 whole entry): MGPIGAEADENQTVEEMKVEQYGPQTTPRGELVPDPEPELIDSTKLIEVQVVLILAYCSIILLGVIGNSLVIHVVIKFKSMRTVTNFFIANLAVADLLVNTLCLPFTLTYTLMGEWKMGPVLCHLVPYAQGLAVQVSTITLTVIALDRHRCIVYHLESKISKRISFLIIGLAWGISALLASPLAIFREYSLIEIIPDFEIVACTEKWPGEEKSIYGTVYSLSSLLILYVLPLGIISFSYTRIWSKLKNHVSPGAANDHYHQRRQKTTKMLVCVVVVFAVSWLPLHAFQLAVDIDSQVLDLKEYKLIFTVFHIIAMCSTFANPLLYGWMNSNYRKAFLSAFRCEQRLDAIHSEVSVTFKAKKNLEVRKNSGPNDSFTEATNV
The format is cell membranes, Membrane. The conditions noted are these: kan-ts.

Series [8] addresses Receptor tyrosine-protein kinase erbB-2 (Homo sapiens, UniProt P04626). The series is described as follows: biochemical. In kind it is cell-based, Insect cells. The conditions noted are these: insect cells.
The target of series [9] is 5-hydroxytryptamine receptor 1B (Rattus norvegicus, UniProt P28564). In kind it is cell membranes, Wistar, Cerebral cortex, Membrane. Note: in other assays of this panel Not Active means under 50% inhibition at 10 µM.
Sequence of 5-hydroxytryptamine receptor 1B (P28564 whole entry): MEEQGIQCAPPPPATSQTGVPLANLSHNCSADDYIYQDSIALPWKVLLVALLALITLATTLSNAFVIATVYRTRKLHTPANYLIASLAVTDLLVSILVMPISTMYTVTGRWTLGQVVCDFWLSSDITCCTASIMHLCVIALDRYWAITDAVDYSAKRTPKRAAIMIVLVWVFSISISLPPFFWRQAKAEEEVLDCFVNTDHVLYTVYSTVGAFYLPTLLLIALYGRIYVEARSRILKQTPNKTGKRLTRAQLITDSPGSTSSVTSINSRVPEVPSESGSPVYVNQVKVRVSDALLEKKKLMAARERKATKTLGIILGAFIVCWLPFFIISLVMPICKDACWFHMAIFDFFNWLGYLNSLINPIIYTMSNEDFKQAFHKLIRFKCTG
The next series has as its target T5, Adenosine receptor A1 (Homo sapiens, UniProt P30542).
T5 sequence (P30542 whole entry): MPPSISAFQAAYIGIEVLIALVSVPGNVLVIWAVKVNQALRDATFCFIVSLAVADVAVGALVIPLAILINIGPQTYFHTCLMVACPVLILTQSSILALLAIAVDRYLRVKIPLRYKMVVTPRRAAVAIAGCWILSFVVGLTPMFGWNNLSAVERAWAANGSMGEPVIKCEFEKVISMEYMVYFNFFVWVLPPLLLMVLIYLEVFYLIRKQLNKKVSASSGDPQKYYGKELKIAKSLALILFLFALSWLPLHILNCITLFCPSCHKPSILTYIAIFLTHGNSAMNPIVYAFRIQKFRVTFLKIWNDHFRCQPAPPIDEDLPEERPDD
In kind it is cell membranes, CHO, Membrane.

Series [10] addresses Voltage-gated inwardly rectifying potassium channel KCNH2 (Homo sapiens, UniProt Q12809). The conditions noted are these: hek293.

Sequence of Voltage-gated inwardly rectifying potassium channel KCNH2 (Q12809 whole entry): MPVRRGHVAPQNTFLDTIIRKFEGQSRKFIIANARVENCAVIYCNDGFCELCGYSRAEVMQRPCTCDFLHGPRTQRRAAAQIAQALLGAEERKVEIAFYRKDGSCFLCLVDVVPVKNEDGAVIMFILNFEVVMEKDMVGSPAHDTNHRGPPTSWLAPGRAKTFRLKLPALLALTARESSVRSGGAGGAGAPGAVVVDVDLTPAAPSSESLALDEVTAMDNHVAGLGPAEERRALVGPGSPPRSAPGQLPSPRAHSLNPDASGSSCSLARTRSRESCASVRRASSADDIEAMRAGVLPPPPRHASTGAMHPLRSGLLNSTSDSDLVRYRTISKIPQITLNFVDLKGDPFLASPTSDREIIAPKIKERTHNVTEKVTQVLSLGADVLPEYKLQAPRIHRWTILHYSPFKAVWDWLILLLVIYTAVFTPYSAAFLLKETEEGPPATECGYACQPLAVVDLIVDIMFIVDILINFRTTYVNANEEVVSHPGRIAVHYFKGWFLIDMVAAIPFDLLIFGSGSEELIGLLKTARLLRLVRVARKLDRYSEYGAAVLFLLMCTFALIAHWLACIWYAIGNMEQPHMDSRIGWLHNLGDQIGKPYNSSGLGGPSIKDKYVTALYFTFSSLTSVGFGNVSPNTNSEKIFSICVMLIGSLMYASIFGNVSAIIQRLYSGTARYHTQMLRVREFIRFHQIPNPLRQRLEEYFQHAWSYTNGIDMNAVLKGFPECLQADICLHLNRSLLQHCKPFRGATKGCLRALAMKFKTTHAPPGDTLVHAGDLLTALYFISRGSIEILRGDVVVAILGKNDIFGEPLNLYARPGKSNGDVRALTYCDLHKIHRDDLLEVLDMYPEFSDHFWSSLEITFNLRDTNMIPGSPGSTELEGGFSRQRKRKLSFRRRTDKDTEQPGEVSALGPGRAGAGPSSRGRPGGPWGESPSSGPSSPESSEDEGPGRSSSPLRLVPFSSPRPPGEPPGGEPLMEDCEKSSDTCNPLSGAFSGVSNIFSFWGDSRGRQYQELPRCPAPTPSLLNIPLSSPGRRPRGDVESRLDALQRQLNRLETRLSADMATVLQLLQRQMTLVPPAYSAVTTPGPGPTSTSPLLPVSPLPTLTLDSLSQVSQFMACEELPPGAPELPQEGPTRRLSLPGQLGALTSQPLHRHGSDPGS
Sequence of Receptor tyrosine-protein kinase erbB-2 (P04626 whole entry): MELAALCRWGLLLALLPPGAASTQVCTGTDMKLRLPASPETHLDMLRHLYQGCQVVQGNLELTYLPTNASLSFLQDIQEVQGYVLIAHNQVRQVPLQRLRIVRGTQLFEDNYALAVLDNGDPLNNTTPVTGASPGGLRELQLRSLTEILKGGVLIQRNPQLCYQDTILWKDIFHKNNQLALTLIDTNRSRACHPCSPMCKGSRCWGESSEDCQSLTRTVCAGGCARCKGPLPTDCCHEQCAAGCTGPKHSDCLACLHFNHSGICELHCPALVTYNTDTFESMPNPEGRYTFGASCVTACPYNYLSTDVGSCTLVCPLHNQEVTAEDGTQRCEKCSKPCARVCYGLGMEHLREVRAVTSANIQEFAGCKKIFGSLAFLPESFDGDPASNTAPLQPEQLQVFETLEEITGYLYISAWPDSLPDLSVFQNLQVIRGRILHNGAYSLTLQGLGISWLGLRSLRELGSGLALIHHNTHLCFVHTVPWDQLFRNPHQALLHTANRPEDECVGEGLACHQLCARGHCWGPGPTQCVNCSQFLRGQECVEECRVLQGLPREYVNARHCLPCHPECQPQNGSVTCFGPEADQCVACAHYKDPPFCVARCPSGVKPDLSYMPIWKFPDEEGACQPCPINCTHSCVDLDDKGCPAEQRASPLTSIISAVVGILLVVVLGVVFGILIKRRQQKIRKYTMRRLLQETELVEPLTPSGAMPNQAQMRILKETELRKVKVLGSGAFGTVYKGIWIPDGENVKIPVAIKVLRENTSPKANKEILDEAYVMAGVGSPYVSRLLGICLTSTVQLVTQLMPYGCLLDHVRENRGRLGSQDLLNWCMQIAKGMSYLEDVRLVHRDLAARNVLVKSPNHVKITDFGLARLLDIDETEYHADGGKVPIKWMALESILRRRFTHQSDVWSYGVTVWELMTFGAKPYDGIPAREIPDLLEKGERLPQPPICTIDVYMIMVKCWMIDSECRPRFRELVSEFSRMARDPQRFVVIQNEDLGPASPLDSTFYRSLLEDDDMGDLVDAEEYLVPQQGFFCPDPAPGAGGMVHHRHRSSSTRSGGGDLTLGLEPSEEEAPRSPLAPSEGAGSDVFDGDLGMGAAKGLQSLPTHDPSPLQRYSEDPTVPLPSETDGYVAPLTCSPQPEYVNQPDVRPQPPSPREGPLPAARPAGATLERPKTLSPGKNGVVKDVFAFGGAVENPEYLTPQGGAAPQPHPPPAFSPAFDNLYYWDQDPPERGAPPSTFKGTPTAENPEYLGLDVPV

With `Cc1[nH]cnc1CN1CCc2c(c3ccccc3n2C)C1=O` [ALOSETRON], the IC50 entry in [1], in series [2], in series [3], in series [4], in series [5] and in series [6] was “Not Active” throughout. Also, the IC50 result (against Insulin receptor; in [7]; in series [8]; in series [9]; against Adenosine receptor A1 (cho); in series [10]) was “Not Active” each time. The inhibitory constant (Ki) entry in [5], in series [6] and in series [10] was “Not Active” each time.
For `O=c1cc(-c2ccccc2)oc2c1ccc1ccccc12` [ALPHA-NAPHTHOFLAVONE], the IC50 result in [1], in [2], in series [3], in series [4], in series [5] and in series [6] was “Not Active” each time. In addition, the IC50 entry at Insulin receptor was “Not Active”; in [7], “Not Active”; in series [8], “Not Active”; in series [9] it was “Not Active”; on Adenosine receptor A1 (read-out: IC50) it was 1130 nM; in [10] it was “Not Active”. Moreover, the Ki result in [5] is “Not Active”; in series [6], “Not Active”; on Adenosine receptor A1 (read-out: Ki) it was 661 nM; in [10], “Not Active”.
With `NCC[C@H](O)C(=O)N[C@@H]1C[C@H](N)[C@@H](O[C@H]2O[C@H](CN)[C@@H](O)[C@H](O)[C@H]2O)[C@H](O)[C@H]1O[C@H]1O[C@H](CO)[C@@H](O)[C@H](N)[C@H]1O` [AMIKACIN], the IC50 result in series [1], in series [2], in [3], in series [4], in [5] and in series [6] was “Not Active” in each case. Further, the IC50 entry (on Insulin receptor; in series [7]; in [8]; in series [9]; on Adenosine receptor A1 (cho); in [10]) was “Not Active” each time. In addition, the Ki entry in [5], in series [6] and in series [10] was “Not Active” each time.
On to `CCOC(=O)OC(C)OC1=C(C(=O)Nc2ccccn2)N(C)S(=O)(=O)c2ccccc21` (stereo unspecified) [AMPIROXICAM], for which the IC50 entry in series [1], in series [2], in series [3], in series [4], in series [5] and in series [6] was “Not Active” throughout. The IC50 result (at Insulin receptor; in series [7]; in series [8]; in series [9]; at Adenosine receptor A1 (cho); in series [10]) was “Not Active” throughout. Also, the Ki entry in [5], in series [6] and in [10] was “Not Active” each time.

Values taken from ChEMBL document CHEMBL1909046, “DrugMatrix in vitro pharmacology data”.
